Source: patent publication EP0552018A1, “Use of Rifabutin for delaying or preventing mycobacterial infections” (Erbamont Inc., priority 1992, dated 1993)

Experiments:
[1] = test system: Mycobacterium avium complex (MAC); test: Multicenter, randomized, placebo controlled clinical trial: prevention or delay of MAC infection in AIDS patients; format: in vivo, human
[2] = cited from earlier work
[3] = test system: atypical mycobacterial infection; test: Same clinical trial: occurrence of atypical mycobacterial infection; format: in vivo, human; conditions: rifabutin 300 mg/day; one patient on the placebo arm developed it
M. tuberculosis = test: Same clinical trial: occurrence of M. tuberculosis infections; format: in vivo, human; conditions: rifabutin 300 mg/day; three patients on the placebo arm developed M. tuberculosis infections
Procedure: The efficacy of rifabutin on the prevention of MAC disease in HIV positive patients having a CD4 count of ≦200/mm³ was assessed in a large multicenter controlled trial in the United States.
Five hundred ninety (590) patients with CD4 counts ≦200/mm³; and with no clinical evidence of MAC infection (as determined by two blood cultures) were randomly assigned to receive either rifabutin monotherapy (300 mg/day) or placebo. Nine of these patients, five in the rifabutin group and four in the placebo group, who were enrolled with presumptive negative evidence of MAC blood cultures were subsequently found to have had MAC bacteremia at baseline and were excluded from the study. Fifty-six of the 581 patients who had confirmed negative cultures at baseline developed MAC infection after having enrolled in the study. Eighteen of those 56 patients were in the rifabutin group and the other 38 were in the placebo group. After excluding seven patients from each group who were considered to be inevaluable, the treatment groups were compared with respect to the incidence of MAC infection; the observed difference was highly statistically significant (p=0.002, Chi-squared test).
Three patients on the placebo arm of the study developed M. tuberculosis infections (other than MAC) while no patients receiving rifabutin developed tuberculosis. […]

## CO[C@H]1/C=C/O[C@@]2(C)Oc3c(C)c(O)c4c(c3C2=O)C2=NC3(CCN(CC(C)C)CC3)NC2=C(NC(=O)/C(C)=C\C=C\[C@H](C)[C@H](O)[C@@H](C)[C@@H](O)[C@@H](C)[C@H](OC(C)=O)[C@@H]1C)C4=O [rifabutin, 4-dioxo-3,4-[2-spiro-(N-isobutyl-4-piperidyl)-2,5-dihydro-1H-imidazo]-rifamycin S]
[1]; HIV positive patients, CD4 ≦200/mm³, rifabutin monotherapy 300 mg/day oral, of 581 patients with confirmed negative cultures at baseline, before excluding inevaluable patients
  Patients who developed MAC infection after having enrolled in the study: Eighteen
[1]; analysis by Kaplan/Meier Methodology, compared with placebo
  Time of MAC infection in patients who got a MAC infection: significantly later than patients on placebo
[1]; at any point in time, on average, Kaplan/Meier analysis
  Likelihood of placebo patients to die or to experience a MAC event relative to patients receiving rifabutin: 2.3 times
[1]; evaluable patients, rifabutin 300 mg/day, group total 280
  Number of: Patients without MAC: 269
[1]; evaluable patients, rifabutin 300 mg/day, group total 280, vs placebo x^2 = 9.76, P ≅ 0.002
  Number of: Patients with MAC: 11
[2]; chloroform
  Solubility in chloroform: soluble
[2]; methanol
  Solubility in methanol: soluble
[2]; water
  Solubility in water: very slightly soluble
[3]
  Patients who developed atypical mycobacterial infection: no patients
M. tuberculosis
  Patients who developed tuberculosis: no patients
